According to ChEMBL document CHEMBL1201862, “PubChem BioAssay data set” (2004):
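Exposure lasted 48 hours, with cells grown in 96-well plates and compounds tested at five concentrations. At the GI50, growth is halved.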 The source made the active and inactive calls. Rule as the data show it: active = GI50 up to about 1.1 µM and inactive = higher.

How the values were obtained:
Assay in all cases: NCI anticancer screen, dose series, 48 h
MDA-N = test system: MDA-N
NCI-H23 = test system: NCI-H23
TK-10 = test system: TK-10
MDA-MB-231 = test system: MDA-MB-231
RPMI-8226 = test system: RPMI-8226
SK-MEL-2 = test system: SK-MEL-2
RXF 393 = test system: RXF 393
SF-539 = test system: SF-539
K562 = test system: K562
OVCAR-4 = test system: OVCAR-4
OVCAR-3 = test system: OVCAR-3
BT-549 = test system: BT-549
U-251 = test system: U-251
COLO 205 = test system: COLO 205
M14 = test system: M14
HOP-62 = test system: HOP-62
HOP-92 = test system: HOP-92
ACHN = test system: ACHN
PC-3 = test system: PC-3
DU-145 = test system: DU-145
NCI/ADR-RES = test system: NCI/ADR-RES
SK-OV-3 = test system: SK-OV-3
SN12C = test system: SN12C
MDA-MB-435 = test system: MDA-MB-435
HCT-116 = test system: HCT-116
UO-31 = test system: UO-31
CAKI-1 = test system: CAKI-1
T47D = test system: T47D
LOX IMVI = test system: LOX IMVI
NCI-H460 = test system: NCI-H460
HT-29 = test system: HT-29
OVCAR-5 = test system: OVCAR-5
KM12 = test system: KM12
SK-MEL-5 = test system: SK-MEL-5
CCRF-CEM = test system: CCRF-CEM
MOLT-4 = test system: MOLT-4
SK-MEL-28 = test system: SK-MEL-28
SNB-75 = test system: SNB-75
EKVX = test system: EKVX
UACC-257 = test system: UACC-257
UACC-62 = test system: UACC-62
NCI-H226 = test system: NCI-H226
SNB-19 = test system: SNB-19
IGROV-1 = test system: IGROV-1
SW-620 = test system: SW-620
HCC 2998 = test system: HCC 2998
SF-295 = test system: SF-295
OVCAR-8 = test system: OVCAR-8
MCF7 = test system: MCF7
A549 = test system: A549
HCT-15 = test system: HCT-15
A498 = test system: A498
HL-60 = test system: HL-60
NCI-H522 = test system: NCI-H522
SF-268 = test system: SF-268
Malme-3M = test system: Malme-3M
786-0 = test system: 786-0
SR = test system: SR

Question: Which results are given for `CC/C=C(\C(=C/CC)[N+](=O)[O-])[N+](=O)[O-]`?
Answer: GI50 (MDA-N): 22.8 µM (inactive); GI50 (NCI-H23): 18.9 µM (inactive); GI50 (TK-10): 18.1 µM (inactive); GI50 (MDA-MB-231): 21 µM (inactive); GI50 (RPMI-8226): 24.1 µM (inactive); GI50 (SK-MEL-2): 47.5 µM (inactive); GI50 (RXF 393): 14.9 µM (inactive); GI50 (SF-539): 21.3 µM (inactive); GI50 (K562): 30.3 µM (inactive); GI50 (OVCAR-4): 22.8 µM (inactive); GI50 (OVCAR-3): 16.1 µM (inactive); GI50 (BT-549): 18.1 µM (inactive); GI50 (U-251): 17.7 µM (inactive); GI50 (COLO 205): 17.8 µM (inactive); GI50 (M14): 13.4 µM (inactive); GI50 (HOP-62): 58.2 µM (inactive); GI50 (HOP-92): 23.7 µM (inactive); GI50 (ACHN): 18.7 µM (inactive); GI50 (PC-3): 33.1 µM (inactive); GI50 (DU-145): 21.3 µM (inactive); GI50 (NCI/ADR-RES): 20.7 µM (inactive); GI50 (SK-OV-3): > 100 µM (inactive); GI50 (SN12C): 18.9 µM (inactive); GI50 (MDA-MB-435): 16.8 µM (inactive); GI50 (HCT-116): 19.9 µM (inactive); GI50 (UO-31): 18.9 µM (inactive); GI50 (CAKI-1): 23.2 µM (inactive); GI50 (T47D): 28.4 µM (inactive); GI50 (LOX IMVI): 17.5 µM (inactive); GI50 (NCI-H460): 18 µM (inactive); GI50 (HT-29): 16.4 µM (inactive); GI50 (OVCAR-5): 13.4 µM (inactive); GI50 (KM12): > 10 µM (inactive); GI50 (SK-MEL-5): 31 µM (inactive); GI50 (CCRF-CEM): 8.22 µM (inactive); GI50 (MOLT-4): 42.7 µM (inactive); GI50 (SK-MEL-28): 19.9 µM (inactive); GI50 (SNB-75): > 100 µM (inactive); GI50 (EKVX): 15.6 µM (inactive); GI50 (UACC-257): 17.1 µM (inactive); GI50 (UACC-62): 18 µM (inactive); GI50 (NCI-H226): 95.5 µM (inactive); GI50 (SNB-19): > 100 µM (inactive); GI50 (IGROV-1): 17.6 µM (inactive); GI50 (SW-620): 17.1 µM (inactive); GI50 (HCC 2998): 19.4 µM (inactive); GI50 (SF-295): > 100 µM (inactive); GI50 (OVCAR-8): 21.4 µM (inactive); GI50 (MCF7): 16.7 µM (inactive); GI50 (A549): 74.6 µM (inactive)

Question: What does the source list for `CCOC(=N)n1c(=O)n(C2=NCCN2)c2ccccc21`?
Answer: GI50 (MDA-N): > 100 µM (inactive); GI50 (NCI-H23): > 100 µM (inactive); GI50 (TK-10): > 100 µM (inactive); GI50 (HCT-15): > 100 µM; GI50 (MDA-MB-231): > 100 µM (inactive); GI50 (A498): > 100 µM (inactive); GI50 (HL-60): > 100 µM (inactive); GI50 (RXF 393): > 100 µM (inactive); GI50 (SF-539): > 100 µM (inactive); GI50 (K562): > 100 µM (inactive); GI50 (OVCAR-4): > 100 µM (inactive); GI50 (OVCAR-3): > 100 µM (inactive); GI50 (NCI-H522): > 100 µM (inactive); GI50 (BT-549): > 100 µM (inactive); GI50 (U-251): > 100 µM (inactive); GI50 (COLO 205): > 100 µM (inactive); GI50 (M14): > 100 µM (inactive); GI50 (HOP-62): > 100 µM (inactive); GI50 (HOP-92): > 100 µM (inactive); GI50 (ACHN): > 100 µM (inactive); GI50 (PC-3): > 100 µM (inactive); GI50 (DU-145): > 100 µM (inactive); GI50 (NCI/ADR-RES): > 100 µM (inactive); GI50 (SK-OV-3): > 100 µM (inactive); GI50 (SN12C): > 100 µM (inactive); GI50 (MDA-MB-435): > 100 µM (inactive); GI50 (HCT-116): > 100 µM (inactive); GI50 (SF-268): > 100 µM (inactive); GI50 (UO-31): > 100 µM (inactive); GI50 (CAKI-1): > 100 µM (inactive); GI50 (T47D): > 100 µM (inactive); GI50 (LOX IMVI): > 100 µM (inactive); GI50 (Malme-3M): > 100 µM (inactive); GI50 (NCI-H460): > 100 µM (inactive); GI50 (HT-29): > 100 µM (inactive); GI50 (OVCAR-5): > 100 µM (inactive); GI50 (KM12): > 100 µM (inactive); GI50 (CCRF-CEM): > 100 µM (inactive); GI50 (786-0): > 100 µM (inactive); GI50 (MOLT-4): > 100 µM (inactive); GI50 (SK-MEL-28): > 100 µM (inactive); GI50 (SNB-75): 31.2 µM (inactive); GI50 (EKVX): > 100 µM (inactive); GI50 (UACC-257): > 100 µM (inactive); GI50 (UACC-62): > 100 µM (inactive); GI50 (NCI-H226): > 100 µM (inactive); GI50 (SNB-19): > 100 µM (inactive); GI50 (IGROV-1): > 100 µM (inactive); GI50 (SW-620): > 100 µM (inactive); GI50 (HCC 2998): > 100 µM (inactive); GI50 (SF-295): > 100 µM (inactive); GI50 (SR): > 100 µM (inactive); GI50 (OVCAR-8): > 100 µM (inactive); GI50 (MCF7): > 100 µM (inactive); GI50 (A549): > 100 µM (inactive)

Question: `COc1ccc(CNc2nc3cc(C(F)(F)F)ccc3nc2C(=O)O)cc1` was tested. Which GI50 (MDA-N) did it give?
Answer: 27.7 µM (inactive)

Question: What about the GI50 (NCI-H23) of the same molecule?
Answer: 24.5 µM (inactive)

Question: What about the GI50 (HCT-15) of the same molecule?
Answer: 22.6 µM

Question: What about the GI50 (MDA-MB-231) of the same molecule?
Answer: 26.9 µM (inactive)

Question: What about the GI50 (A498) of the same molecule?
Answer: 21.5 µM (inactive)

Question: And the GI50 (RPMI-8226)?
Answer: 39.3 µM (inactive)

Question: What about the GI50 (SK-MEL-2) of the same molecule?
Answer: 23.1 µM (inactive)

Question: And the GI50 (SF-539)?
Answer: 23 µM (inactive)

Question: What about the GI50 (K562) of the same molecule?
Answer: 24.7 µM (inactive)

Question: What about the GI50 (OVCAR-4) of the same molecule?
Answer: 32.9 µM (inactive)

Question: What about the GI50 (OVCAR-3) of the same molecule?
Answer: 15.3 µM (inactive)

Question: What about the GI50 (BT-549) of the same molecule?
Answer: 23.3 µM (inactive)

Question: What about the GI50 (U-251) of the same molecule?
Answer: 28.6 µM (inactive)

Question: And the GI50 (COLO 205)?
Answer: 22.5 µM (inactive)

Question: What about the GI50 (M14) of the same molecule?
Answer: 22.4 µM (inactive)

Question: And the GI50 (HOP-62)?
Answer: 21.4 µM (inactive)

Question: What about the GI50 (HOP-92) of the same molecule?
Answer: 20.3 µM (inactive)

Question: What about the GI50 (ACHN) of the same molecule?
Answer: 29.4 µM (inactive)

Question: What about the GI50 (PC-3) of the same molecule?
Answer: 31.2 µM (inactive)

Question: And the GI50 (DU-145)?
Answer: 26.7 µM (inactive)

Question: And the GI50 (NCI/ADR-RES)?
Answer: 24.3 µM (inactive)

Question: What about the GI50 (SK-OV-3) of the same molecule?
Answer: 40.4 µM (inactive)

Question: And the GI50 (SN12C)?
Answer: 21.4 µM (inactive)

Question: What about the GI50 (MDA-MB-435) of the same molecule?
Answer: 21.3 µM (inactive)

Question: And the GI50 (HCT-116)?
Answer: 19.2 µM (inactive)

Question: And the GI50 (UO-31)?
Answer: 17.8 µM (inactive)

Question: And the GI50 (CAKI-1)?
Answer: 35.8 µM (inactive)

Question: And the GI50 (T47D)?
Answer: 25.7 µM (inactive)

Question: And the GI50 (LOX IMVI)?
Answer: 19.4 µM (inactive)

Question: What about the GI50 (NCI-H460) of the same molecule?
Answer: 31.4 µM (inactive)

Question: And the GI50 (HT-29)?
Answer: 24 µM (inactive)

Question: And the GI50 (OVCAR-5)?
Answer: 28.4 µM (inactive)

Question: What about the GI50 (KM12) of the same molecule?
Answer: 22.4 µM (inactive)

Question: And the GI50 (SK-MEL-5)?
Answer: 12.3 µM (inactive)

Question: What about the GI50 (CCRF-CEM) of the same molecule?
Answer: 27.1 µM (inactive)

Question: What about the GI50 (786-0) of the same molecule?
Answer: 23.1 µM (inactive)

Question: And the GI50 (MOLT-4)?
Answer: 21.8 µM (inactive)

Question: And the GI50 (SK-MEL-28)?
Answer: 37.3 µM (inactive)

Question: What about the GI50 (SNB-75) of the same molecule?
Answer: 38 µM (inactive)

Question: And the GI50 (EKVX)?
Answer: 23.6 µM (inactive)

Question: What about the GI50 (UACC-257) of the same molecule?
Answer: 24.8 µM (inactive)

Question: And the GI50 (UACC-62)?
Answer: 21.9 µM (inactive)

Question: And the GI50 (NCI-H226)?
Answer: 40 µM (inactive)

Question: What about the GI50 (SNB-19) of the same molecule?
Answer: 31.2 µM (inactive)

Question: What about the GI50 (IGROV-1) of the same molecule?
Answer: 27.4 µM (inactive)

Question: What about the GI50 (SW-620) of the same molecule?
Answer: 31.1 µM (inactive)

Question: What about the GI50 (HCC 2998) of the same molecule?
Answer: 31.6 µM (inactive)

Question: What about the GI50 (SF-295) of the same molecule?
Answer: 32 µM (inactive)

Question: What about the GI50 (SR) of the same molecule?
Answer: 24.5 µM (inactive)

Question: What about the GI50 (OVCAR-8) of the same molecule?
Answer: 32.3 µM (inactive)

Question: And the GI50 (MCF7)?
Answer: 25 µM (inactive)

Question: And the GI50 (A549)?
Answer: 28.8 µM (inactive)
